Active and inactive are the calls of the source. The calls are words filed in the database; no cut-off is given here.
Experiments:
[1] = test system: IMR-90; test: Cytotoxicity against human IMR90 cells after 44 to 46 hrs by CellTiter-Blue assay; type: cell-based
[2] = test system: Trypanosoma brucei; test: Antitrypanosomal activity against Trypanosoma brucei 90-13 bloodstream forms after 72 hrs by CellTiter-Blue assay; type: functional; conditions: 90-13, 72 h
[3] = Selectivity index, ratio of EC50 for cytotoxicity against human IMR90 cells to EC50 for antitrypanosomal activity against Trypanosoma brucei 90-13 bloodstream forms; type: toxicity, cell-based; conditions: read-out: Ratio EC50
[4] = test system: Leishmania amazonensis; test: Anti-parasitic activity against Leishmania amazonensis promastigotes after 44 hrs by CellTiter-Blue assay; type: functional
[5] = Selectivity index, ratio of EC50 for cytotoxicity against human IMR90 cells to EC50 for anti-parasitic activity against Leishmania amazonensis promastigotes; type: toxicity, cell-based; conditions: read-out: Ratio EC50
[6] = test system: Trypanosoma brucei; test: Induction of apoptosis in Trypanosoma brucei 90-13 bloodstream forms assessed as dead cells at EC50 after 6 to 24 hrs by Annexin-V-FITC/propidium iodide staining based flow cytometry (reference value: 49.7%); type: functional
[7] = test system: Trypanosoma brucei; test: Induction of apoptosis in Trypanosoma brucei 90-13 bloodstream forms at EC50 after 6 hrs by Annexin-V-FITC/propidium iodide staining based flow cytometry (reference value: 47.3%); type: functional
[8] = test system: Trypanosoma brucei; test: Induction of apoptosis in Trypanosoma brucei 90-13 bloodstream forms after 6 to 24 hrs by Annexin-V-FITC/propidium iodide staining based flow cytometry; type: functional
[9] = test system: Trypanosoma brucei; test: Induction of apoptosis in Trypanosoma brucei 29-13 procyclic forms after 6 to 24 hrs by Annexin-V-FITC/propidium iodide staining based flow cytometry (reference value: 658 RFU); type: functional

Row | Compound | EC50 [1] [nM] | EC50 [2] [nM] | selectivity ratio [3] | EC50 [4] [nM] | selectivity ratio [5] | Activity [6] [%] | Activity [7] [%] | Activity [8] | Activity [9] [RFU]
1 | O=C(Nc1ccc(S(=O)(=O)N2CCCCC2)cc1)c1ccc([N+](=O)[O-])o1 | > 25000 | 220 | > 114 | 13700 | > 2 | – | – | – | –
2 | CC1(C)CCN(S(=O)(=O)c2cccc(NC(=O)c3ccc([N+](=O)[O-])o3)c2)CC1 | > 25000 | 320 | > 78 | 100 | > 250 | – | – | – | –
3 | CC1CS(=O)(=O)CCN1/N=C/c1ccc([N+](=O)[O-])o1 (configuration not stated) [NIFURTIMOX] | > 25000 | 7500 | – | 800 | – | – | – | – | –
4 | O=C(Nc1ccc(S(=O)(=O)N2CCOCC2)cc1)c1ccc([N+](=O)[O-])s1 | > 25000 | 60 | > 417 | 1300 | > 19 | – | – | – | –
5 | CC(C)(C)C1CCN(S(=O)(=O)c2ccc(NC(=O)c3ccc([N+](=O)[O-])o3)cc2)CC1 | > 25000 | 30 | > 833 | 1400 | > 18 | 48.2 | 82 | – | –
6 | O=C(Nc1ccc(S(=O)(=O)N2CCOCC2)cc1)c1ccco1 | > 25000 | > 10000 | – | > 25000 | – | – | – | – | –
7 | O=C(Nc1ccc(S(=O)(=O)N2CCC3(CCCCC3)CC2)cc1)c1ccc([N+](=O)[O-])o1 | > 25000 | 30 | > 833 | 1500 | > 17 | – | – | – | –
8 | Cc1ccc(C(=O)Nc2ccc(S(=O)(=O)N3CCOCC3)cc2)o1 | > 25000 | > 10000 | – | > 25000 | – | – | – | – | –
9 | CC1(C)CCN(S(=O)(=O)c2cccc(NC(=O)c3cccc([N+](=O)[O-])c3)c2)CC1 | > 25000 | 10400 | > 2 | 3000 | > 8 | – | – | – | –
10 | O=C(Nc1ccc(S(=O)(=O)N2CCOCC2)cc1)c1ccc([N+](=O)[O-])o1 | > 25000 | 460 | > 54 | 3000 | > 8 | – | – | – | –
11 | O=C(Nc1ccc(S(=O)(=O)C2CCCCC2)cc1)c1ccc([N+](=O)[O-])o1 | > 25000 | 490 | > 51 | 1600 | > 16 | – | – | – | –
12 | CC1(C)CCN(S(=O)(=O)c2ccc(NC(=O)c3ccc([N+](=O)[O-])o3)cc2)CC1 | > 25000 | 90 | > 278 | 280 | > 89 | – | – | – | –
13 | CC1(C)CCN(S(=O)(=O)c2ccc(NC(=O)c3ccc(C(F)(F)F)o3)cc2)CC1 | > 25000 | 7550 | > 3 | 10700 | > 2 | – | – | – | –
14 | O=C(Nc1ccc(S(=O)(=O)N2CCC3(CCCCC3)CC2)cc1)c1ccc([N+](=O)[O-])s1 | > 25000 | 20 | > 1250 | 100 | > 250 | – | – | – | –
15 | O=C(Nc1ccc(S(=O)(=O)N2CCC(Cl)CC2)cc1)c1ccc([N+](=O)[O-])o1 | > 25000 | 80 | > 313 | 7900 | > 3 | – | – | – | –
16 | O=C(Nc1ccc(S(=O)(=O)C2=CCOC=C2)cc1)c1ccc([N+](=O)[O-])o1 | > 25000 | 530 | > 47 | 300 | > 83 | – | – | – | –
17 | CC1(C)CCN(S(=O)(=O)c2ccc(NC(=O)c3ccc([N+](=O)[O-])s3)cc2)CC1 | > 25000 | 10 | > 2500 | 100 | > 250 | – | – | – | –
18 | O=C(Nc1ccc(S(=O)(=O)N2CCOCC2)cc1)c1cccs1 | > 25000 | > 10000 | – | > 25000 | – | – | – | – | –
19 | CC1(C)CCN(S(=O)(=O)c2cccc(NC(=O)c3ccco3)c2)CC1 | > 25000 | 5110 | > 5 | 1200 | > 21 | – | – | – | –
20 | N=C1CCN(S(=O)(=O)c2ccc(NC(=O)c3ccc([N+](=O)[O-])o3)cc2)CC1 | > 25000 | 730 | > 34 | 10500 | > 2 | – | – | – | –
21 | O=C(Nc1ccc(S(=O)(=O)N2CCOCC2)cc1)c1ccc([N+](=O)[O-])cc1 | > 25000 | > 10000 | – | > 25000 | – | – | – | – | –
22 | O=C(Nc1ccc(S(=O)(=O)c2ccccc2)cc1)c1ccc([N+](=O)[O-])o1 | > 25000 | 110 | > 227 | 4300 | > 6 | – | – | – | –
23 | O=C(Nc1ccc(S(=O)(=O)N2CCC(F)CC2)cc1)c1ccc([N+](=O)[O-])o1 | > 25000 | 420 | > 60 | 7400 | > 3 | – | – | – | –
24 | CC1(C)CCN(S(=O)(=O)c2cccc(NC(=O)c3ccc([N+](=O)[O-])s3)c2)CC1 | > 25000 | 45 | > 556 | 1300 | > 19 | – | – | – | –
25 | O=C(Nc1ccc(S(=O)(=O)N2CCOCC2)cc1)c1ccccc1 | > 25000 | > 10000 | – | > 25000 | – | – | – | – | –
26 | CC1(C)CCN(S(=O)(=O)c2ccc(NC(=O)c3cccc([N+](=O)[O-])c3)cc2)CC1 | > 25000 | 6600 | > 4 | 13300 | > 2 | – | – | – | –
27 | CC(C)(C)C1CCN(S(=O)(=O)c2ccc(NC(=O)c3ccc([N+](=O)[O-])s3)cc2)CC1 | > 25000 | 30 | > 833 | 100 | > 250 | – | – | – | –
28 | O=C(Nc1ccc(S(=O)(=O)N2CCC(O)CC2)cc1)c1ccc([N+](=O)[O-])o1 | > 25000 | 310 | > 81 | 4400 | > 6 | – | – | Active | 849
29 | CC1CCN(S(=O)(=O)c2ccc(NC(=O)c3ccc([N+](=O)[O-])o3)cc2)CC1 | > 25000 | 120 | > 208 | 7700 | > 3 | – | – | – | –
30 | O=C(Nc1cccc(S(=O)(=O)N2CCOCC2)c1)c1ccc([N+](=O)[O-])o1 | > 25000 | 1470 | > 17 | 900 | > 28 | – | – | – | –
